Data published in patent US11839689B2, “Formulations of enzalutamide” (Astellas Pharma Inc., priority 2012, dated 2023).

How the values were obtained:
Format in all cases: physicochemical
[1] = Glass transition temperature by modulated DSC as a function of relative humidity
Experimental: Below Tg, an amorphous material is said to be in a “glassy” state in which molecular mobility is severely restricted. […] Glass transition temperatures Tg were determined for amorphous enzalutamide, and for spray-dried dispersions (SDDs) of enzalutamide with HPMCAS-M or PVP-VA64, at <5% and 75% relative humidity (RH). Tgs were determined by modulated differential scanning calorimetry (mDSC), utilizing the following protocol. Samples (about 5 mg) were equilibrated at the desired RH overnight in an environmental chamber at ambient temperature. The samples were then loaded into pans and sealed inside the environmental chamber. The samples were analyzed on a Q1000 mDSC (TA Instruments, New Castle, Delaware). Samples were typically scanned over the temperature range of −40° C. to 180° C., at a scan rate of 2.5° C./min, and a modulation rate of ±1.5° C./min. The data sampling interval was 0.20 sec/point. The Tg was calculated based on half height.

[2] = Microcentrifuge dissolution test in Model Fasted Duodenal Solution; conditions: for Enzalutamide Concentration, 0 min / Enzalutamide Concentration, 4 min / Enzalutamide Concentration, 10 min / Enzalutamide Concentration, 20 min / Enzalutamide Concentration, 40 min / Enzalutamide Concentration, 90 min / Enzalutamide Concentration, 1200 min: MFDS pH 6.5; for Enzalutamide Concentration, 0 min / Enzalutamide Concentration, 4 min / Enzalutamide Concentration, 10 min / Enzalutamide Concentration, 20 min / Enzalutamide Concentration, 40 min / Enzalutamide Concentration, 90 min / Enzalutamide Concentration, 1200 min / AUC90 (area under the curve at 90 minutes) / Cmax, 90 (maximum drug concentration through 90 minutes): dose 200 μg/ml; for AUC90 (area under the curve at 90 minutes) / Cmax, 90 (maximum drug concentration through 90 minutes): Table 4.2, MFDS
From the text: The in vitro dissolution test to evaluate enhanced drug concentration in aqueous solution can be conducted by (1) adding with agitation a sufficient quantity of control composition, that is, the crystalline enzalutamide alone, to the in vitro test medium, typically MFD or PBS solution, to determine the maximum concentration of the enzalutamide achieved under the conditions of the test; (2) adding with agitation a sufficient quantity of test composition (e.g., the enzalutamide and polymer) in an equivalent test medium, such that if all the enzalutamide dissolved, the theoretical concentration of enzalutamide would exceed the observed maximum concentration of enzalutamide by a factor of about 20; and (3) comparing the measured MDC and/or aqueous concentration versus time AUC90 of the test composition in the test medium with the maximum concentration, and/or the aqueous concentration versus time AUC90 of the control composition. In conducting such a dissolution test, the amount of test composition or control composition used is an amount such that if all of the enzalutamide dissolved, the test enzalutamide concentration would be at least about 20-fold that of the control enzalutamide concentration.
The concentration of dissolved enzalutamide is typically measured as a function of time by sampling the test medium and plotting enzalutamide concentration in the test medium vs. time so that the MDC can be ascertained. The MDC is taken to be the maximum value of dissolved enzalutamide measured over the duration of the test. The enzalutamide concentration versus time AUC90 is calculated by integrating the concentration versus time curve over any 90-minute time period between the time of introduction of the composition into the aqueous use environment (time equals zero) and 270 minutes following introduction to the use environment (time equals 270 minutes). Typically, when the composition reaches its MDC rapidly, in less than about 30 minutes, the time interval used to calculate AUC90 is from time equals zero to time equals 90 minutes. However, if the AUC90 over any 90-minute time period described above of a composition meets the criteria of compositions described herein, then the composition is included in compositions of this disclosure. The time period 270 min is chosen because of its physiological relevance. Drug absorption in mammals generally occurs in the small intestine, and the small intestinal transit time in humans is approximately 4.5 hr, or 270 min.
To avoid large enzalutamide particulates which would give an erroneous determination, the test solution is either filtered or centrifuged. “Dissolved enzalutamide” is typically taken as that material that either passes a 0.45 micron syringe filter or, alternatively, the material that remains in the supernatant following centrifugation. Filtration can be conducted using a 13 mm, 0.45 micron polyvinylidine difluoride syringe filter, such as the filter sold by Scientific Resources under the trademark TITAN′. Centrifugation is typically carried out in a polypropylene microcentrifuge tube by centrifuging at 13,000 G for 60 seconds. Other similar filtration or centrifugation methods can be employed and useful results obtained. For example, using other types of microfilters may yield values somewhat higher or lower (+/−10-40%) than that obtained with the filter specified above but will still allow identification of dispersions. It is recognized that this definition of “dissolved enzalutamide” encompasses not only monomeric solvated enzalutamide molecules but also a wide range of species such as polymer/enzalutamide assemblies that have submicron dimensions such as enzalutamide aggregates, aggregates of mixtures of polymer and enzalutamide, micelles, polymeric micelles, colloidal particles, polymer/enzalutamide complexes, and other such enzalutamide-containing species that are present in the filtrate or supernatant in the specified dissolution test. […]

[3] = Membrane-permeation (MP) dissolution test
Experimental: The membrane permeability test described in the Examples below is carried out as follows. A drug-permeable membrane is placed between feed and permeate reservoirs. A sufficient quantity of test composition is added to a feed test medium and placed in the feed reservoir, while a water immiscible organic solution, such as a 60/40 mixture of decanol/decane, is placed in the permeate reservoir. Samples are removed from the permeate reservoir and analyzed for the concentration of drug as a function of time. […] Further details of this membrane permeation test are disclosed in U.S. Pat. No. 7,611,630 B2.
The MP-dissolution test, whose details are described above, measures a capability of low solubility drug formulations which is not measured in the microcentrifuge dissolution test utilized in Examples 4 and 7. This test mimics an aspect of the in vivo situation in the GI tract. In the in vivo situation, it is generally accepted that free drug in solution (i.e. individual drug molecules dissolved in the GI medium without association with formulation components) is the species which is absorbed across the gastrointestinal wall into the bloodstream. As free drug is absorbed, the formulation must be capable of supplying more free drug for absorption. The membrane permeation test measures the amount of drug which crosses a polymeric membrane (as a model of the GI wall) over time, and thus reflects the ability of the formulation to resupply free drug in solution to be further passively transported across the polymeric membrane. In Table 8.1 below, Maximum Flux is the maximum observed rate of permeation across the polymeric membrane, based on the slope of the absorption curve over any period within the 240 minute duration of the experiment, normalized for membrane area. Total drug recovery is the % of the initial drug dose which has crossed the membrane when the test ended at 240 minutes.
The membrane permeation test was carried out for 60% A enzalutamide SDDs with HPMCAS-M, HPMC E3 Prem, HPMCP-55, and Eudragit-L100, as described in Example 8.

[4] = SEM particle morphology before and after 1 day at 50° C./75% RH; conditions: after 1 day exposure to 50° C./75% RH
Experimental: Scanning electron micrographs (SEMs) were obtained for samples before and after 1 day exposure to a 50° C./75% RH environment. After exposure of these samples to this challenging storage environment, no crystals were seen, indicative of the ability of these samples to maintain the amorphous character of enzalutamide. […] Thus these three embodiments would require controlled storage conditions to maintain their efficacy.

[5] = Microcentrifuge dissolution test after suspension in 0.5% methylcellulose for 2 hours
Experimental: Drugs and drug formulations are sometimes dosed as aqueous suspensions, particularly for pediatric patients. The ability of various enzalutamide SDDs to retain their ability to maintain drug supersaturation in vitro was assessed by using the microcentrifuge dissolution test to measure drug dissolution after suspension in 0.5% methylcellulose in water for 2 hours. Methylcellulose is a standard viscosifying suspending agent which is used to maintain drug particles in suspension in oral suspension dosage forms. The table below presents in vitro dissolution performance before and after suspension in 0.5% methylcellulose.

[6] = Table 8.1, within 240 minutes, normalized for membrane area
[7] = 0 hr, before suspension in aqueous 0.5% methylcellulose
[8] = 2 hr, after suspension for 2 hr in aqueous 0.5% methylcellulose

Row | Enzalutamide Concentration, 0 min ([2]; 0 min) [µg/mL] | Enzalutamide Concentration, 4 min ([2]; 4 min) [µg/mL] | Enzalutamide Concentration, 10 min ([2]; 10 min) [µg/mL] | Enzalutamide Concentration, 20 min ([2]; 20 min) [µg/mL] | Enzalutamide Concentration, 40 min ([2]; 40 min) [µg/mL] | Enzalutamide Concentration, 90 min ([2]; 90 min) [µg/mL] | Enzalutamide Concentration, 1200 min ([2]; 1200 min) [µg/mL] | AUC90 (area under the curve at 90 minutes) [2] | Cmax, 90 (maximum drug concentration through 90 minutes) [2] [µg/mL] | Maximum Flux [3, 6] [μg/cm^2 × min] | Compound | further results
1 | 0.0 | 61 | 100 | 100 | 110 | 120 | 30 | 9,500 min*μg/mL | 120 | 1.3 | CNC(=O)c1ccc(N2C(=S)N(c3ccc(C#N)c(C(F)(F)F)c3)C(=O)C2(C)C)cc1F [Amorphous (spray-dried) enzalutamide - BREC-0035-09B(V)] | Tg ([1]; 75% RH): 64.0 °C; Tg ([1]; <5% RH): 88.5 °C; fusion of particles to larger particles by SEM after storage challenge [4]: fusion of particles to form larger particles; AUC90 [5, 7]: 8,900 min · mcg/ml; Cmax 90 [5, 7]: 110 µg/mL; AUC90 [5, 8]: 8,800 min · mcg/ml; Cmax 90 [5, 8]: 100 µg/mL
2 | 0.0 | 1 | 3 | 5 | 6 | 7 | 9 | 500 µg·min/mL | 7 | 0.4 | CNC(=O)c1ccc(N2C(=S)N(c3ccc(C#N)c(C(F)(F)F)c3)C(=O)C2(C)C)cc1F [Crystalline enzalutamide (Control 1)] | In vitro dissolution, Average, 0 min ([2]; Table 9.1, 0 min): 0.32 µg/mL; In vitro dissolution, Average, 4 min ([2]; Table 9.1, 4 min): 5.23 µg/mL; In vitro dissolution, Average, 10 min ([2]; Table 9.1, 10 min): 8.04 µg/mL; In vitro dissolution, Average, 20 min ([2]; Table 9.1, 20 min): 7.69 µg/mL; In vitro dissolution, Average, 40 min ([2]; Table 9.1, 40 min): 8.65 µg/mL; In vitro dissolution, Average, 90 min ([2]; Table 9.1, 90 min): 9.14 µg/mL; In vitro dissolution, Average, 1200 min ([2]; Table 9.1, 1200 min): 12.12 µg/mL; AUC90 min ([2]; Table 9.2): 740 µg·min/mL; Cmax, 90 min ([2]; Table 9.2): 10 µg/mL; Maximum Flux ([3]; Table 9.3): 0.4 μg/cm^2-min
